Experimental data from ChEMBL document CHEMBL1149464, “Structure-guided synthesis of tamoxifen analogs with improved selectivity for the orphan ERRgamma” (Bioorg Med Chem Lett, 2006).

Species: Homo sapiens
Assay: Selectivity for ERRgamma over ERalpha relative to 4-hydroxytamoxifen; call rule not given here

| Structure (SMILES) | Ratio IC50 |
| --- | --- |
| CN(C)CCOc1ccc(/C(=C(/CCN=[N+]=[N-])c2ccccc2)c2ccc(O)cc2)cc1 | 1.6 |

Molecular target: T1, Estrogen-related receptor gamma (Homo sapiens, UniProt P62508)
T1 sequence (P62508 whole entry): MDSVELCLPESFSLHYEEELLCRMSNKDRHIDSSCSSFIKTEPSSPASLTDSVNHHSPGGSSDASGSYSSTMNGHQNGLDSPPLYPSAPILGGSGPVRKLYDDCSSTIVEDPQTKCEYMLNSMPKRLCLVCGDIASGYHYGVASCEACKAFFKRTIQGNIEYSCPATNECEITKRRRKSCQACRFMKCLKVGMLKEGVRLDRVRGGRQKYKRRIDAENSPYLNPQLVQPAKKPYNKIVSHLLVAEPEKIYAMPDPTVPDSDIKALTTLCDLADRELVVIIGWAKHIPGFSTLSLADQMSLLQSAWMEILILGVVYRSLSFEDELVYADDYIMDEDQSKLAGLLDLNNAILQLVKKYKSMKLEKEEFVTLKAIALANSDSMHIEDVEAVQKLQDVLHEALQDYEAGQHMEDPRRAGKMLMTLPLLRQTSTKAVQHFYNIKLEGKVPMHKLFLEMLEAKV
Assay: Displacement of [3H]4-OHT from ERRgamma at 3 uM

| Structure (SMILES) | IC50 |
| --- | --- |
| CNCCC/C(=C(\c1ccc(O)cc1)c1ccc(OCCN(C)C)cc1)c1ccccc1 | Not Active |
| CN(C)CCC/C(=C(\c1ccc(O)cc1)c1ccc(OCCN(C)C)cc1)c1ccccc1 | Not Active |
| CC(=O)NCCC/C(=C(\c1ccc(O)cc1)c1ccc(OCCN(C)C)cc1)c1ccccc1 | Not Active |
| CN(C)CCOc1ccc(/C(=C(/CCCC(=O)O)c2ccccc2)c2ccc(O)cc2)cc1 | Not Active |

Molecular target: T1, Estrogen-related receptor gamma

| Structure (SMILES) | IC50 |
| --- | --- |
| CSCCC/C(=C(\c1ccc(O)cc1)c1ccc(OCCN(C)C)cc1)c1ccccc1 | 1000 nM |
| CN(C)CCOc1ccc(/C(=C(/CCC#N)c2ccccc2)c2ccc(O)cc2)cc1 | 1300 nM |
| CN(C)CCOc1ccc(/C(=C(/CCCN=[N+]=[N-])c2ccccc2)c2ccc(O)cc2)cc1 | 160 nM |
| CN(C)CCOc1ccc(/C(=C(/CCCCO)c2ccccc2)c2ccc(O)cc2)cc1 | 790 nM |
| CN(C)CCOc1ccc(/C(=C(/CCN=[N+]=[N-])c2ccccc2)c2ccc(O)cc2)cc1 | 5 nM |
| CN(C)CCOc1ccc(/C(=C(/CCCCl)c2ccccc2)c2ccc(O)cc2)cc1 | 130 nM |
| CN(C)CCOc1ccc(/C(=C(/CCCl)c2ccccc2)c2ccc(O)cc2)cc1 [4-HYDROXYTORMIFENE] | 13 nM |
| CN(C)CCOc1ccc(/C(=C(/CCCC#N)c2ccccc2)c2ccc(O)cc2)cc1 | 200 nM |

Molecular target: T2, Estrogen receptor (Homo sapiens, UniProt P03372)
T2 sequence (P03372 whole entry): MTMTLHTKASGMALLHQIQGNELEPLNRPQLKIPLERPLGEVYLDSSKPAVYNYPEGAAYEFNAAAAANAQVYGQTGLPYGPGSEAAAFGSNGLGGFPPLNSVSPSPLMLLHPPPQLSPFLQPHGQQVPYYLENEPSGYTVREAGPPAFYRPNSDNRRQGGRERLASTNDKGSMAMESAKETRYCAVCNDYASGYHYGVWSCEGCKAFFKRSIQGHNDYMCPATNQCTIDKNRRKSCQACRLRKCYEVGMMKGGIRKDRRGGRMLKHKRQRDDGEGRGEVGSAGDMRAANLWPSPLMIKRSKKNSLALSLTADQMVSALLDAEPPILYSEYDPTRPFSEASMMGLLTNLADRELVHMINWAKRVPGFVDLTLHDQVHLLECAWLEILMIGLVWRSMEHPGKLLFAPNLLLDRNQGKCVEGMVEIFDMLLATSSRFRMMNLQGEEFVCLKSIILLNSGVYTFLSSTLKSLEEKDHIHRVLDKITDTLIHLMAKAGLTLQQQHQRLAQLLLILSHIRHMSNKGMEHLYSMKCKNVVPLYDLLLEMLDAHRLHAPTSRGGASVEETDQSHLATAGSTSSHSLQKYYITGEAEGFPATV

| Structure (SMILES) | IC50 |
| --- | --- |
| CN(C)CCOc1ccc(/C(=C(/CCN=[N+]=[N-])c2ccccc2)c2ccc(O)cc2)cc1 | 1 nM |
